Test results reported in patent US20220133753A1, “COMPOSITIONS AND METHODS USEFUL FOR TREATING DISEASES CHARACTERIZED BY INSUFFICIENT PANTOTHENATE KINASE ACTIVITY” (Comet Therapeutics, Inc., priority 2016, published 2022).
Read-outs that look alike come from different tables or passages of the source.

How the values were obtained:
[1] = system: Drosophila S2 cells; assay: HoPan treatment of Drosophila S2 cells in combination with CoA or 4′-phosphopantetheine; type: cell-based; conditions: HoPan treated S2 cells
Description: HoPan treatment of Drosophila S2 Cell in combination with CoA or 4′-phosphopantetheine treatment: Drosophila Schneider's S2 cells were maintained at standard conditions as explained above. Cells in the exponential phase of growth were used for all the experiments. Different indicated concentrations of CoA or 4′-phosphopantetheine (deuterium labelled PPanSH(D4) or unlabeled PPanSH) were added to S2 cells either in the presence or absence of 0.5 mM HoPan (Zhou Fang Pharm Chemical, China) for 48 h. Similarly, Drosophila S2 cells were treated with different concentrations of PPanSH(D4) at either 25° C. or 4° C. and cells were then harvested at various time points to access transport of PPanSH(D4). Stable isotope labelled PPanSH containing 4 deuterium atoms was purchased from Syncom (Groningen, The Netherlands) as a sodium salt (chemical structure is provided in FIG. 13A). As a read out cell count, intracellular total CoA and PPanSH levels (both labelled and unlabeled levels wherever appropriate) and histone acetylation levels were analyzed as explained below.
(§1) Drosophila S2 Cell Immunofluorescence Staining: For immunofluorescence Drosophila S2 cells were seeded on Poly-L-Lysine coated (Sigma-Aldrich) glass microscope slides and allowed to settle for 45 min. Cells were fixed with 3.7% formaldehyde (Sigma Aldrich) for 20 min, washed briefly with PBS+0.1% Triton-X-100 (Sigma Aldrich) and permeabilized with PBS+0.2% Triton-X-100 for 20 min. The slides were incubated in primary antibody (rabbit anti-AcLys, Cell Signaling Cat No: 9441, 1:500) to visualize histone acetylation levels in PBS+0.1% Triton-X-100 overnight and after an additional washing step in PBS+0.1% Triton-X-100 they were incubated in secondary goat anti-rabbit-Alexa488 antibody (Molecular Probes) for two hours at room temperature (RT). F-actin was detected with Rhodamin-Phalloidin (20 U/ml)(Invitrogen) and DNA by staining with DAPI (0.2 ug/ml) (Thermo Scientific). Finally the samples were mounted in 80% glycerol and analyzed using a Leica fluorescence microscope with Leica software. Adobe Photoshop and Illustrator (Adobe Systems Incorporated, San Jose, Calif., USA) were used for image assembly.

[2] = liver extracts, −20° C., after a week; cited from earlier work
[3] = system: dPANK/fbl RNAi treated Drosophila S2 cells; assay: dPANK/fbl RNA interference in Drosophila S2 cells, rescue by CoA or 4′-phosphopantetheine; type: cell-based; conditions: compound added to the medium
Description: Drosophila S2 Cell Culture, RNA Interference, and CoA and 4′-phosphopantetheine treatment: Drosophila Schneider's S2 cells were maintained at 25° C. in Schneider's Drosophila medium (Invitrogen) supplemented with 10% heat inactivated fetal calf serum (Gibco) and antibiotics (penicillin/streptomycin, Invitrogen) under laboratory conditions. Synthesis of RNAi constructs and RNA interference (dsRNA) treatment was carried out as described previously (Siudeja K et al, EMBO Mol Med 3, 755-766 (2011)). Non-relevant (human gene; hMAZ) dsRNA was used as control. The cells were incubated for 4 days to induce an efficient knock-down. Cells were then subcultured, with or without CoA (Sigma-Aldrich, Cat. No: C4780—which is used for all the experiments wherever stated below) or 4′-phosphopantetheine (PPanSH) at different concentrations and were maintained for additional 3 days until analysis for rescue efficiency of the compounds was performed. The stock solutions of compounds were made in sterile water and stored in −20° C. until use.
as §1

[4] = Parallel Artificial Membrane Permeability Assay (PAMPA); type: in vitro ADME; conditions: 5 h incubation, room temperature, phosphate-buffered saline
Description: FIG. 13E is a depiction of a Parallel Artificial Membrane Permeability Assay (PAMPA). Experiments were performed according to the manufacturer's instructions. In this assay, a two-well system is separated by an artificial lipid-oil-lipid membrane (shown in grey). To the lower (donor) compartment, a compound dissolved in buffer is added, the upper (acceptor) compartment contains only buffer. After 5 hours of incubation, concentration of compound is measured in both wells to assess its propensity to diffuse over the artificial membrane. The permeability was calculated according to the manufacturer's instruction (formulas are depicted to the right). Compounds that are below the assay threshold are predicted to be unable to pass membranes passively, whereas compounds above the threshold are able to pass membranes passively. Ceq=Equilibrium Concentration, CD=Concentration in donor well, VD=Volume of donor well (0.3 ml), CA=Concentration in acceptor well, VA=Volume of acceptor well (0.2 ml), P=Permeability, S=Membrane area (0.3 cm2), t=Incubation time (18000 s).
PAMPA assay procedure: Parallel Artificial Membrane Permeability Assay (PAMPA) was performed and processed according to manufacturer's instructions (BD Gentest Pre-coated PAMPA plates). Briefly, two superimposed wells are separated by an artificial lipid-oil-lipid membrane. The compound of interest (PPanSH, CoA, caffeine, amiloride) was added to the bottom well in phosphate-buffered saline, whereas the top well was filled with phosphate-buffered saline alone. After 5 h of incubation at room temperature, concentrations of the different compounds were measured using UV-VIS absorption spectroscopy (BMG Labtech SPECTROstar Omega) along with calibration curves for all compounds. The permeability efficiency was further calculated according to manufacturer's instructions. For caffeine and amiloride, four replicates were performed; for PPanSH and CoA twelve replicates were performed. Caffeine and amiloride were obtained from Sigma.

[5] = Conversion of CoA in human serum by HPLC; type: in vitro ADME
Source text: The conversion of CoA to 4′-phosphopantetheine was further investigated in mouse serum and in human serum.

## CC(C)(COP(=O)(O)OP(=O)(O)OC[C@H]1O[C@@H](n2cnc3c(N)ncnc32)[C@H](O)[C@@H]1OP(=O)(O)O)[C@@H](O)C(=O)NCCC(=O)NCCS [CoA, Coenzyme A]
[1]; compound added to the culture medium, HPLC
  intracellular concentration of CoA: restored the intracellular concentration of CoA
[1]; compound added to the medium
  rescue of HoPan-induced decrease in cell count: rescued
  rescue of HoPan-induced histone acetylation defect: rescued
[1]; external supplementation, HPLC
  intracellular levels of 4′-phosphopantetheine: significantly increased
[2]
  CoA degrades to: 50%
3 h
  CoA, share of the initial concentration still present: > 95%
Bovine (fetal calf)
  conversion of CoA in serum: converted into 4′-phosphopantetheine
Bovine (fetal calf), 30 min
  CoA degraded: 90%
[3]
  cell count of dPANK/fbl RNAi treated S2 cells: rescued the cell count in a concentration-dependent manner
[3]; immunofluorescence
  histone (protein) acetylation of dPANK/fbl RNAi treated S2 cells: rescued
[4]
  membrane permeation (PAMPA): poorly permeating molecule and not
[5]
  conversion of CoA in serum: converted to 4′-phosphopantetheine
